Laboratory results taken from the NIST ThermoML archive (doi:10.1021/je900124n).
Values joined by “and” are separate entries in the source; they are usually repeats but may differ in a detail not shown here. Equal entries are not always repeated.

Details: Fluid (supercritical or subcritical phases), Buoyancy - hydrostatic balance with magnetic suspension - two sinkers

CCC [propane]
Details	mass density
460 K, 1046.1 kPa	12.5822 kg/m3
460 K, 1046.4 kPa	12.585 kg/m3
460 K, 1046.5 kPa	12.5879 kg/m3
460 K, 1830.3 kPa	22.7747 kg/m3
460 K, 1830.7 kPa	22.7788 kg/m3 and 22.7791 kg/m3
460 K, 1830.9 kPa	22.7814 kg/m3
460 K, 2892.4 kPa	37.7704 kg/m3 and 37.7706 kg/m3
460 K, 2892.5 kPa	37.7721 kg/m3 and 37.7722 kg/m3
460 K, 2892.6 kPa	37.7743 kg/m3
460 K, 4123 kPa	57.2169 kg/m3
460 K, 4123.1 kPa	57.2175 kg/m3
460 K, 4123.4 kPa	57.2232 kg/m3
460 K, 4123.6 kPa	57.2271 kg/m3
460 K, 4123.8 kPa	57.2284 kg/m3
460 K, 4978.5 kPa	72.26 kg/m3
460 K, 4978.6 kPa	72.2622 kg/m3
460 K, 6345.6 kPa	99.2922 kg/m3 [middle of 4 runs]
460 K, 8445 kPa	147.718 kg/m3 and 147.719 kg/m3 and 147.717 kg/m3
460 K, 8445.1 kPa	147.721 kg/m3
460 K, 8731.7 kPa	154.767 kg/m3
460 K, 8731.9 kPa	154.768 kg/m3
460 K, 8732 kPa	154.77 kg/m3 and 154.768 kg/m3
460 K, 11420 kPa	218.352 kg/m3 [middle of 8 runs]
460.01 K, 687.74 kPa	8.1493 kg/m3
460.01 K, 687.75 kPa	8.1496 kg/m3 and 8.1495 kg/m3
460.01 K, 1046.4 kPa	12.5877 kg/m3
460.01 K, 1046.6 kPa	12.591 kg/m3
460.01 K, 4978.7 kPa	72.2625 kg/m3
460.01 K, 4978.8 kPa	72.2648 kg/m3
460.01 K, 4978.9 kPa	72.2665 kg/m3 [middle of 4 runs]
460.01 K, 8434.9 kPa	147.459 kg/m3
460.01 K, 8435 kPa	147.46 kg/m3
460.01 K, 8435.1 kPa	147.462 kg/m3 and 147.464 kg/m3 and 147.461 kg/m3
460.01 K, 8435.2 kPa	147.464 kg/m3 and 147.463 kg/m3 and 147.466 kg/m3
480 K, 716.12 kPa	8.1077 kg/m3
480 K, 716.13 kPa	8.1078 kg/m3 and 8.1079 kg/m3 and 8.108 kg/m3
480 K, 1038.1 kPa	11.8882 kg/m3
480 K, 1924.9 kPa	22.769 kg/m3 and 22.7696 kg/m3
480 K, 1925 kPa	22.771 kg/m3
480 K, 1925.1 kPa	22.7716 kg/m3 and 22.7708 kg/m3
480 K, 3069 kPa	37.9021 kg/m3
480 K, 3069.2 kPa	37.9044 kg/m3 and 37.905 kg/m3
480 K, 3069.5 kPa	37.9086 kg/m3
480 K, 3069.6 kPa	37.9115 kg/m3
480 K, 4376.6 kPa	56.9392 kg/m3
480 K, 4376.8 kPa	56.9424 kg/m3
480 K, 4377.1 kPa	56.9487 kg/m3
480 K, 4377.2 kPa	56.9487 kg/m3
480 K, 4377.6 kPa	56.955 kg/m3
480 K, 5340.5 kPa	72.2831 kg/m3 and 72.2827 kg/m3
480 K, 5340.6 kPa	72.285 kg/m3
480 K, 6880.9 kPa	99.2607 kg/m3 and 99.2626 kg/m3
480 K, 6881 kPa	99.2628 kg/m3
480 K, 9330.8 kPa	147.276 kg/m3 and 147.278 kg/m3
480 K, 9330.9 kPa	147.278 kg/m3 and 147.275 kg/m3
480 K, 9331 kPa	147.279 kg/m3
480 K, 9343.8 kPa	147.548 kg/m3
480 K, 9343.9 kPa	147.549 kg/m3 and 147.552 kg/m3
480 K, 9344 kPa	147.551 kg/m3
480 K, 9344.1 kPa	147.55 kg/m3
480 K, 9689.8 kPa	154.575 kg/m3
480 K, 9690 kPa	154.576 kg/m3
480 K, 9690.1 kPa	154.579 kg/m3
480 K, 9690.2 kPa	154.581 kg/m3 and 154.58 kg/m3
480 K, 13007 kPa	218.012 kg/m3 and 218.013 kg/m3 and 218.014 kg/m3
480.01 K, 399.65 kPa	4.4746 kg/m3 and 4.4747 kg/m3 and 4.4744 kg/m3
480.01 K, 1038.8 kPa	11.899 kg/m3
480.01 K, 1039.1 kPa	11.9024 kg/m3
480.01 K, 1039.3 kPa	11.9056 kg/m3
480.01 K, 1041.9 kPa	11.9354 kg/m3
480.01 K, 5340.5 kPa	72.2834 kg/m3 and 72.2836 kg/m3
480.01 K, 5340.6 kPa	72.2841 kg/m3 and 72.2848 kg/m3 and 72.2843 kg/m3
480.01 K, 6880.9 kPa	99.2609 kg/m3 and 99.2601 kg/m3
480.01 K, 9330.9 kPa	147.277 kg/m3
480.01 K, 9331 kPa	147.28 kg/m3 and 147.281 kg/m3
480.01 K, 13007 kPa	218.014 kg/m3
480.01 K, 13008 kPa	218.016 kg/m3
500 K, 415.04 kPa	4.4539 kg/m3 and 4.454 kg/m3
500 K, 415.05 kPa	4.454 kg/m3
500 K, 744.3 kPa	8.0688 kg/m3
500 K, 744.34 kPa	8.0689 kg/m3
500 K, 1058.4 kPa	11.5875 kg/m3 and 11.5868 kg/m3
500 K, 2016.7 kPa	22.7375 kg/m3
500 K, 2016.8 kPa	22.7381 kg/m3
500 K, 2016.9 kPa	22.7385 kg/m3
500 K, 2017 kPa	22.7394 kg/m3
500 K, 3242.8 kPa	37.9947 kg/m3
500 K, 3243.6 kPa	38.0051 kg/m3
500 K, 3243.7 kPa	38.0059 kg/m3 and 38.0062 kg/m3
500 K, 3243.9 kPa	38.0086 kg/m3
500 K, 4643.7 kPa	56.9284 kg/m3
500 K, 4644 kPa	56.9317 kg/m3
500 K, 4644.4 kPa	56.9376 kg/m3
500 K, 4644.5 kPa	56.9398 kg/m3
500 K, 4644.6 kPa	56.941 kg/m3
500 K, 7408.7 kPa	99.2014 kg/m3 and 99.1992 kg/m3
500 K, 7408.8 kPa	99.1996 kg/m3 and 99.1999 kg/m3
500 K, 10218 kPa	147.109 kg/m3 and 147.114 kg/m3
500 K, 10219 kPa	147.115 kg/m3
500 K, 10234 kPa	147.392 kg/m3 and 147.391 kg/m3 and 147.393 kg/m3
500 K, 10637 kPa	154.378 kg/m3 [middle of 5 runs]
500 K, 14582 kPa	217.649 kg/m3 and 217.645 kg/m3 and 217.644 kg/m3
500 K, 14583 kPa	217.649 kg/m3
500.01 K, 415.04 kPa	4.4539 kg/m3
500.01 K, 744.34 kPa	8.069 kg/m3
500.01 K, 744.35 kPa	8.069 kg/m3
500.01 K, 1058.3 kPa	11.5848 kg/m3
500.01 K, 1058.7 kPa	11.5888 kg/m3
500.01 K, 1059.3 kPa	11.5965 kg/m3
500.01 K, 5697.7 kPa	72.2794 kg/m3 and 72.2805 kg/m3 and 72.2784 kg/m3
500.01 K, 5697.8 kPa	72.2813 kg/m3 [middle of 4 runs]
500.01 K, 5697.9 kPa	72.2822 kg/m3
500.01 K, 10218 kPa	147.112 kg/m3 and 147.116 kg/m3
500.01 K, 10219 kPa	147.118 kg/m3 and 147.116 kg/m3
500.01 K, 14582 kPa	217.641 kg/m3 and 217.644 kg/m3
500.01 K, 14583 kPa	217.647 kg/m3
